Results from patent US7612200B2, “Inhibitors of protein kinases” (Locus Pharmaceuticals, Inc., priority 2004, dated 2009).

Assays:
ERK2 = ERK2 (Homo sapiens, UniProt P28482); assay: Kinase activity at ATP Km,app, ERK2; assay type: biochemical; conditions: compound 2 μM
PKC-alpha = PKC-alpha (Homo sapiens, UniProt P17252); assay: Kinase activity at ATP Km,app, PKC-alpha; assay type: biochemical; conditions: 40 min, compound 2 μM
Method: (§1) PKCα Kinase Activity: In a final reaction volume of 25 μl, PKCα (h) (5-10 mU) is incubated with 20 mM HEPES pH 7.4, 0.03% Triton X-100, 0.1 mM CaCl2, 0.1 mg/ml phosphatidylserine, 10 μg/ml diacylglycerol, 0.1 mg/ml histone Hi, 10 mM MgAcetate and [γ-^33P-ATP] (specific activity approx. 500 cpm/pmol, concentration as required). The reaction is initiated by the addition of the MgATP mix. After incubation for 40 minutes at room temperature, the reaction is stopped by the addition of 5 μl of a 3% phosphoric acid solution. 10 μl of the reaction is then spotted onto a P30 filtermat and washed three times for 5 minutes in 75 mM phosphoric acid and once in methanol prior to drying and scintillation counting.

MCF-7 = assay: Cell growth inhibition, MCF-7; assay type: cell-based; conditions: Homo sapiens, MCF7; MCF-7 cell line; 24 hours; viability by WST-1 or Alamar Blue
Method: (§2) The compounds of Examples 1 and 2 were also tested for cell growth inhibition activity a gains two cell lines, MCF-7 and U266. […], suspended in RPMI 1640 media, supplemented with 10% FBS, were pipetted into 96-well plates at a density of 10,000 cells per milliliter in a volume of […] per well. Cells were allowed to equilibrate overnight at 37 C in 5% CO2. Cells were then incubated in the presence of the test compound at a concentrations ranging from 0.03 μM to 10 μM (at ½ log dilutions) for 24 hours. After the incubation period, cells were assessed for viability using either WST-1 (Biovision) or Alamar Blue (BioSourse). Values from treated cells were compared to values from control cells and values expressed as percent control.

U266 = assay: Cell growth inhibition, U266; assay type: cell-based; conditions: Homo sapiens, U-266; U266 cell line; 24 hours; viability by WST-1 or Alamar Blue
Method: as §2

MINK = MINK (Homo sapiens, UniProt Q8N4C8); assay: Protein kinase inhibition, MINK; assay type: biochemical; conditions: Rate (μM) 2, read-out: % Control
JNK2α2 = JNK2α2 (Homo sapiens, UniProt P45984); assay: JNK2α2 Kinase Activity; assay type: biochemical
Method: as §1, with “JNK2α2” for “PKCα”, “50” for “20”, “Tris” for “HEPES”, “7.5,” for “7.4, 0.03% Triton X-100,”, “EGTA, 0.1% β-mercaptoethanol, 3 μM ATF2,” for “CaCl2, 0.1 mg/ml phosphatidylserine, 10 μg/ml diacylglycerol, 0.1 mg/ml histone Hi,”

EphA5 = EphA5 (Homo sapiens, UniProt P54756); assay: Protein kinase inhibition, EphA5; assay type: biochemical; conditions: Rate (μM) 2
EphA2 = EphA2 (Homo sapiens, UniProt P29317); assay: Protein kinase inhibition, EphA2; assay type: biochemical; conditions: Rate (μM) 2, read-out: % Control
p38β = p38β (Homo sapiens, UniProt Q15759); assay: SAPK2b Kinase Activity (p38β); assay type: biochemical; conditions: compound at 2 μm
Method: (§3) SAPK2b Kinase Activity: In a final reaction volume of 25 μl, SAPK2b (h) (5-10 mU) is incubated with 25 mM Tris pH 7.5, 0.02 mM EGTA, 0.33 mg/ml myelin basic protein, 10 mM MgAcetate and [γ-^33P-ATP] (specific activity approx. 500 cpm/pmol, concentration as required). The reaction is initiated by the addition of the MgATP mix. After incubation for 40 minutes at room temperature, the reaction is stopped by the addition of 5 μl of a 3% phosphoric acid solution. 10 μl of the reaction is the spotted onto a P30 filtermat and washed three times for 5 minutes in 75 mM phosphoric acid and once in methanol prior to drying and scintillation counting.

EphA7 = EphA7 (Homo sapiens, UniProt Q15375); assay: Protein kinase inhibition, EphA7; assay type: biochemical; conditions: Rate (μM) 2, read-out: % Control
FGFR1 = FGFR1 (Homo sapiens, UniProt P11362); assay: Protein kinase inhibition, FGFR1; assay type: biochemical; conditions: Rate (μM) 2, read-out: % Control
TrkB = TrkB (Homo sapiens, UniProt Q16620); assay: TrkB Kinase Activity; assay type: biochemical
Method: TrkB Kinase Activity: In a final reaction volume of 25 μl, TrkB (h) (5-10 mU) is incubated with 8 mM MOPS pH 7.0, 0.2 mM EDTA, 0.1 mg/ml poly(Glu, Tyr) 4:1, 10 mM MgAcetate and [γ-^33P-ATP] (specific activity approx. 500 cpm/pmol, concentration as required). The reaction is initiated by the addition of the MgATP mix. After incubation for 40 minutes at room temperature, the reaction is stopped by the addition of 5 μl of a 3% phosphoric acid solution. 10 μl of the reaction is then spotted onto a Filtermat A and washed three times for 5 minutes in 75 mM phosphoric acid and once in methanol prior to drying and scintillation counting.

MKK6 = MKK6 (Homo sapiens, UniProt P52564); assay: Protein kinase inhibition, MKK6; assay type: biochemical; conditions: Rate (μM) 2, read-out: % Control
p38δ = p38δ (Homo sapiens, UniProt O15264); assay: SAPK4 Kinase Activity (p38δ); assay type: biochemical
Method: as §3, with “SAPK4 Kinase” for “SAPK2b Kinase”, “μl, SAPK4” for “μl, SAPK2b”, “10 μL” for “10 μl”

EphA1 = EphA1 (Homo sapiens, UniProt P21709); assay: Protein kinase inhibition, EphA1; assay type: biochemical; conditions: Rate (μM) 2, read-out: % Control

ERK2, sequence (P28482 whole entry, species assumed): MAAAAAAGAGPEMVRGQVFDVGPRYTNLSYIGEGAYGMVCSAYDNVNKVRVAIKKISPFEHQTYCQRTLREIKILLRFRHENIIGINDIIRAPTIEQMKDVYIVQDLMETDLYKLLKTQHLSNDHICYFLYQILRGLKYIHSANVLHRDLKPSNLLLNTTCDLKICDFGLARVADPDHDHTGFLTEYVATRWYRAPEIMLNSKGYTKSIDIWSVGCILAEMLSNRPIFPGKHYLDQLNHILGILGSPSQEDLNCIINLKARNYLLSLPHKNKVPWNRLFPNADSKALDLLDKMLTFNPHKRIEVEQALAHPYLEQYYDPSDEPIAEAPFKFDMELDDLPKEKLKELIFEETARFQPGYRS
JNK2α2, sequence (P45984 whole entry): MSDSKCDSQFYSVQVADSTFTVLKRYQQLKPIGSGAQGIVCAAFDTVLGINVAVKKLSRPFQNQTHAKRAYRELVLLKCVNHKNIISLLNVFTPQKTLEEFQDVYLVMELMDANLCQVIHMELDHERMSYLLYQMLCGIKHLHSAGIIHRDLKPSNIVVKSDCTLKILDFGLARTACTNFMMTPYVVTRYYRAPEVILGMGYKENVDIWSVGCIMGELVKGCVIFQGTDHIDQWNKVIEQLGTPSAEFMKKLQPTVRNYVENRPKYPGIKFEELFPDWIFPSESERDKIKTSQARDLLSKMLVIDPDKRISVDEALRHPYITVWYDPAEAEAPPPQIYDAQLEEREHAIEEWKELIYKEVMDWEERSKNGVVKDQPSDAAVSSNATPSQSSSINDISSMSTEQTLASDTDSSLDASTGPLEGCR
TrkB, sequence (Q16620 32-822): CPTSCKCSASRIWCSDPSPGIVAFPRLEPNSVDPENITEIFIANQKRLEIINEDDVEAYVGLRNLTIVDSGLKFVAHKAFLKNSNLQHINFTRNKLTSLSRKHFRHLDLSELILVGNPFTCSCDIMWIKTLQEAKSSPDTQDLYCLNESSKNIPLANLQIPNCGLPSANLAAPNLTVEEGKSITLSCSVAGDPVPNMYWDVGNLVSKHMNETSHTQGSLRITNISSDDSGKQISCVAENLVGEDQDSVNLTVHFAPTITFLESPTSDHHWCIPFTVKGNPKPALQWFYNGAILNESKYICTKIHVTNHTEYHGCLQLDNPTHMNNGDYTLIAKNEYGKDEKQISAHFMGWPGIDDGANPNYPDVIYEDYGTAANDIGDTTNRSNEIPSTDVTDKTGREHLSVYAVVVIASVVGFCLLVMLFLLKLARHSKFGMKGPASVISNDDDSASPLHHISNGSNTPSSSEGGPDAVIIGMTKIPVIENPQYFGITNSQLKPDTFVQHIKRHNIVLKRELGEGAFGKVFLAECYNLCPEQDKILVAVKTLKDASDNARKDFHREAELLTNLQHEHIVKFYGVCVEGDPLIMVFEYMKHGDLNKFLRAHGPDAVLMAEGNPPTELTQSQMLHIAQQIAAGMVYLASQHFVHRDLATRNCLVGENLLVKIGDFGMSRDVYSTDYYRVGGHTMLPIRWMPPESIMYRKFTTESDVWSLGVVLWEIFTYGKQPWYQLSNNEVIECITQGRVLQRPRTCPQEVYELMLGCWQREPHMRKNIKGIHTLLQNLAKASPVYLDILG
p38δ, sequence (O15264 whole entry): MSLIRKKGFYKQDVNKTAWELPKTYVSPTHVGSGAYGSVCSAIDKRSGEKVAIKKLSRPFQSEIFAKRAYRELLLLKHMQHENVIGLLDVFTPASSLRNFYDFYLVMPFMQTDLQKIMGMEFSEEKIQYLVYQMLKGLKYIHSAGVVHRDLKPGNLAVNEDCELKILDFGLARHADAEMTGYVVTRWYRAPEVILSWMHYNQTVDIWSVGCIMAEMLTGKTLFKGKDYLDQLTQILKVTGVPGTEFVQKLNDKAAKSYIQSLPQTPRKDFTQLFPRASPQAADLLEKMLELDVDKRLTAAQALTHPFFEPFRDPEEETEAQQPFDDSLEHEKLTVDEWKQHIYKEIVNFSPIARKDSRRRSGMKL
FGFR1, sequence (P11362 22-822): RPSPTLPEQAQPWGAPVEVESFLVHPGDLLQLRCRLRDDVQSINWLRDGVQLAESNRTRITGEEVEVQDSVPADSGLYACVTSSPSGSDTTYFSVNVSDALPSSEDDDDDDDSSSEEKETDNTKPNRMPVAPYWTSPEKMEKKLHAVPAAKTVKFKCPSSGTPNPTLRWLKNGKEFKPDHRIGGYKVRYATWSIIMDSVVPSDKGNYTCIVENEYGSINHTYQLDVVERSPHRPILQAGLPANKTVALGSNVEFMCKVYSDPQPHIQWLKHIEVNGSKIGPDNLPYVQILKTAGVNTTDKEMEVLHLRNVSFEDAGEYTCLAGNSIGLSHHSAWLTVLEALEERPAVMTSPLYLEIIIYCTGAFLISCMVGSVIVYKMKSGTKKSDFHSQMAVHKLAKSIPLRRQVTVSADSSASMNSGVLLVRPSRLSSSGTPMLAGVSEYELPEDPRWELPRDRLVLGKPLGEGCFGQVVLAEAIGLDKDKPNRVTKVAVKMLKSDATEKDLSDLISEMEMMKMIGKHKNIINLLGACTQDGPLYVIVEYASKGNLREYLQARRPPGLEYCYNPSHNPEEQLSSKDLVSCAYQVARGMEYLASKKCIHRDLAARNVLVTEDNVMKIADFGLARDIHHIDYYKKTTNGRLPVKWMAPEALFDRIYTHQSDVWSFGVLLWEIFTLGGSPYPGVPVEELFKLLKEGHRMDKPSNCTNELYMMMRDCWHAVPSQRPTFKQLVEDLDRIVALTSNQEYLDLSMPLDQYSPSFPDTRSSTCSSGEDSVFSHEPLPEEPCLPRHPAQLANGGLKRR
EphA2, sequence (P29317 24-976): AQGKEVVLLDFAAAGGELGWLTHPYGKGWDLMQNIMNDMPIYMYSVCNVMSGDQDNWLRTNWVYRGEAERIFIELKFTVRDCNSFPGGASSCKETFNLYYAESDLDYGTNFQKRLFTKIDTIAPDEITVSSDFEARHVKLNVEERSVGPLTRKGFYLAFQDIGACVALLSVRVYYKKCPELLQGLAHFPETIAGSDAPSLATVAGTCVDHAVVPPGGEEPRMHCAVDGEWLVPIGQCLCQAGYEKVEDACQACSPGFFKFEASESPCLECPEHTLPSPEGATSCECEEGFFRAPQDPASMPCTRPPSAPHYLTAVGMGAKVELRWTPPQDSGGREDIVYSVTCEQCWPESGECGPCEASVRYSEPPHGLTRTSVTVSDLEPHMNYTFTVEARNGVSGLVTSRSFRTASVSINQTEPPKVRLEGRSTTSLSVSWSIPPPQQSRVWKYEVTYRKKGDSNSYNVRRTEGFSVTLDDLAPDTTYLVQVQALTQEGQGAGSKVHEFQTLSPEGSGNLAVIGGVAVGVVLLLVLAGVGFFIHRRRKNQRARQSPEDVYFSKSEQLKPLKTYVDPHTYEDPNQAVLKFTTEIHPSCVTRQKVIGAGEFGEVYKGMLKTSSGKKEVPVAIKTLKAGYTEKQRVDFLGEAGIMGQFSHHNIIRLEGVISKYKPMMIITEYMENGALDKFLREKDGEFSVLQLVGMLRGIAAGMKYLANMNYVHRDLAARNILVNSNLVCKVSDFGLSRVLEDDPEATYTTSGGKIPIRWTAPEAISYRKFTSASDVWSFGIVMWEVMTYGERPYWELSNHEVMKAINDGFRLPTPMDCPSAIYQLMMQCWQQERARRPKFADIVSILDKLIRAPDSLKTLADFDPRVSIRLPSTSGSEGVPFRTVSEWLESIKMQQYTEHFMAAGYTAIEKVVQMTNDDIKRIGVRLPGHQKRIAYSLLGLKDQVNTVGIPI
p38β, sequence (Q15759 whole entry): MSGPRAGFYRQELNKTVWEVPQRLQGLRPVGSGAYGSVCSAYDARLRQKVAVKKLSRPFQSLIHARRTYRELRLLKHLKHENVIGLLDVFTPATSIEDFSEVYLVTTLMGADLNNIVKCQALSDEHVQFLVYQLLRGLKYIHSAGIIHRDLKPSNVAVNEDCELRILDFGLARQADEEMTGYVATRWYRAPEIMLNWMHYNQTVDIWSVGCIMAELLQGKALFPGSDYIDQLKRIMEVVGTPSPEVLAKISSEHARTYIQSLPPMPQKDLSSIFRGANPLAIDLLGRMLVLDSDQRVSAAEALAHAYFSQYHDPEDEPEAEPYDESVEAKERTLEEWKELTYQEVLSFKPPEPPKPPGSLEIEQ

`CC(C)(C)c1cc(C(=O)N2CCNC(=O)CC2)c(NC(=O)Nc2ccc(Oc3ccncc3)cc2)s1` [Example 4, 1-(5-tert-Butyl-3-(5-oxo-[1,4]diazepane-1-carbonyl)thiophen-2-yl)-3-(4-(pyridin-4-yloxy)phenyl)urea] was tested, and the inhibition at 2 µM (ERK2) was 0 to 25% and the inhibition at 2 µM (PKC-alpha) was 0 to 25%.

`CC(C)(C)c1cc(C(=O)N2CCNS(=O)(=O)CC2)c(NC(=O)Nc2ccc(Oc3ccncc3)cc2)s1` [Example 1, 1-(5-tert-Butyl-3-(1,1-dioxo-1λ^6-[1,2,5]thiadiazepane-5-carbonyl)thiophen-2-yl)-3-(4-(pyridin-4-yloxy)phenyl)urea] gave an inhibition at 2 µM (ERK2) of 0 to 25%, an inhibition at 2 µM (PKC-alpha) of 0 to 25% and an IC50 (MCF-7) of under 10 µM. For the same molecule, the IC50 (U266) was under 10 µM.

In the case of `CC(C)(C)c1cc(C(=O)N2CCNC(=O)C2)c(NC(=O)Nc2ccc(Oc3ccncc3)cc2)s1` [Example 2, 1-(5-tert-Butyl-3-(3-oxo-piperazine-1-carbonyl)thiophen-2-yl)-3-(4-(pyridin-4-yloxy)phenyl)urea], the inhibition at 2 µM (ERK2) is reported as 0 to 25%, the inhibition at 2 µM (PKC-alpha) is reported as 0 to 25% and the IC50 (MCF-7) is reported as under 10 µM. For the same molecule, the IC50 (U266) was under 10 µM.

With `CC(C)(C)c1cc(C(=O)N2CCS(=O)(=O)CC2)c(NC(=O)Nc2ccc(Oc3ccncc3)cc2)s1` [Example 3, 1-[5-tert-Butyl-3-(1,1-dioxo-1λ^6-thiomorpholine-4-carbonyl)thiophen-2-yl]-3-[4-(pyridin-4-yloxy)phenyl]urea] the remaining activity at 2 µM (MINK) was 51 to 75%, the “% Inhibition at 2 μm” value (JNK2α2; JNK2a2, compound at 2 μm) was 26-50% and the “% inhibition” value (JNK2α2; JNK2α2, Human, Rate (μM) 2) was 26-50%. The “% Control” value (EphA5) was 76-100%, the remaining activity at 2 µM (EphA2) was 76 to 100% and the “% Inhibition at 2 μm” value (p38β) was 76-100%. It also gave a remaining activity at 2 µM (EphA7) of 76 to 100%, a remaining activity at 2 µM (FGFR1) of 76 to 100% and a remaining activity at 2 µM (TrkB; 40 min, Human, Rate (μM) 2, read-out: % Control) of 76 to 100%. For the same molecule, the “% Inhibition at 2 μm” value (TrkB; compound at 2 μm) was 76-100%, the remaining activity at 2 µM (MKK6) was 76 to 100% and the remaining activity at 2 µM (p38δ; 40 min, P38d, Human, Rate (μM) 2, read-out: % Control) was 76 to 100%. For the same molecule, the “% Inhibition at 2 μm” value (p38δ; p38δ, compound at 2 μm) was 76-100% and the remaining activity at 2 µM (EphA1) was 76 to 100%.
